Patent US7741352B2, “KCNQ channel modulating compounds and their pharmaceutical use” (Neurosearch A/S, priority 2003, dated 2010)

Target: T1, human KCNQ4 channel (Homo sapiens, UniProt P56696)
T1 construct: expressed in transfected cells
Assay: Electrophysiological determination: whole-cell patch-clamp of voltage-activated KCNQ current
Type: cell-based
Conditions: HEK293 cell line stably expressing human KCNQ4; current at end of step to −30 mV; baseline current defined as 100%; test concentration not given
Method: KCNQ channels constitute a subfamily of the voltage-dependent potassium (K) channels. Five members of this family have been cloned (1-5) and they have been heterologously expressed in various homo- and heteromeric combinations. The ionic current through the channels is recorded in the whole-cell mode of the patch-clamp technique. The KCNQ currents are activated by a depolarising voltage step and it is investigated whether the test compound change the amount of basal current. Compounds that induce an increase in the voltage-activated current are called activators and the effect obtained by these activators is described as a percentage increase in baseline current at a given concentration.
A HEK293 cell line stably expressing the human KCNQ4 channel was obtained as described by Søgaard et al. [Søgaard R, Ljungstrøm T. Pedersen K A, Olesen S-P, Jensen B S: KCNQ4 channels expressed in mammalian cells: Functional characteristics and pharmacology; Am. J. Phys. 2000 280 C859-C866].
Experiments are carried out on a patch-clamp set-up. Cells plated on cover slips (Ø3.5 mm) are placed in a 15 μl perfusion chamber (flow rate ˜1 ml/min) mounted on an IMT-2 or IX-70 microscope equipped with Nomarski or Hoffmann optics. The microscope is placed on a vibration-free table in a grounded Faraday cage. All experiments are performed at room temperature (20-22° C.). The EPC-9 patch-clamp amplifier (HEKA-electronics, Lambrecht, Germany) is connected to a Macintosh computer via an ITC16 interface. Data are stored directly on the hard disk and analysed using IGOR software (Wavemetrics, Lake Oswego, USA).
The whole-cell configuration of the patch clamp technique is applied. In short: The Up of a borosilicate pipette (resistance 24 MΩ) is gently (remote control system) placed on the cell membrane. Light suction results in a giga seal (pipette resistance increases to more than 1 GΩ) and the cell membrane is then ruptured by more powerful suction. Cell capacitance is electronically compensated and the resistance between the pipette and the cell interior (the series resistance, Rs) is measured and compensated for. Usually the cell capacitance ranges from 5 to 20 pF (depending on cell size) and the series resistance is in the range 3 to 6 MΩ. Rs- as well as capacitance compensation are updated during the experiments (before each stimulus). All experiments with drifting Rs-values are discharged. Leak-subtractions are not performed but the leak is estimated by a hyper-polarisation voltage step.
The extracellular (bath) solution contains 144 mM NaCl, 2 mM CaCl2, 1 mM MgCl2, 10 mM HEPES (pH=7.4). […] By use of the program EqCal the concentration of free Ca^2+ have been calculated to 100 nM, the free Mg^2+ is 1 mM, and MgATP is 1.45 mM. […]

Row | IK (%) | SMILES
1 | 115 | Nc1cccc(-c2ccc(COc3ccc(C(=O)O)c(O)c3)cc2)c1 [Compound 3-11, 4-(3′-Amino-biphenyl-4-ylmethoxy)-2-hydroxy-benzoic acid]
2 | 115 | O=C(O)c1ccc(-c2ccc(COc3ccc(C(=O)O)c(O)c3)cc2)cc1 [Compound 3-17, 4′-(4-Carboxy-3-hydroxy-phenoxymethyl)-biphenyl-4-carboxylic acid]

Same assay, conditions: HEK293 cell line stably expressing human KCNQ4; whole-cell patch clamp

Row | activator or inhibitor of the KCNQ channel (increase or decrease in current) | SMILES
3 | activators | Nc1cccc(-c2ccc(COc3ccc(C(=O)O)c(O)c3)cc2)c1 [Compound 3-11, 4-(3′-Amino-biphenyl-4-ylmethoxy)-2-hydroxy-benzoic acid]
4 | activators | O=C(O)c1ccc(-c2ccc(COc3ccc(C(=O)O)c(O)c3)cc2)cc1 [Compound 3-17, 4′-(4-Carboxy-3-hydroxy-phenoxymethyl)-biphenyl-4-carboxylic acid]

Test system: not given
Assay: not given
Conditions: not given

Row | SMILES | melting point
5 | COCCOCCOc1ccc(C(=O)O)c(O)c1 [Compound 1-4, 2-Hydroxy-4-[2-(2-methoxy-ethoxy]-ethoxy]-benzoic acid] | 110 to 112 °C
6 | O=C(c1ccccc1)c1ccc(COc2ccc(C(=O)O)c(O)c2)cc1 [Compound 1-20, 4-(4-Benzoyl-benzyloxy)-2-hydroxy benzoic acid] | 198 to 199 °C
7 | O=C(O)c1ccc(OCCC(O)CO)cc1O (centres unmarked) [Compound 2-2, 4-(3,4-Dihydroxybutoxy)-2-hydroxy-benzoic acid] | 140 to 148 °C
8 | O=C(O)c1ccc(OCc2ccc(F)cc2)cc1O [Compound 1-18, 4-(4-Fluoro-benzyloxy)-2-hydroxy-benzoic acid] | 196 to 198 °C
9 | C=CCCOc1ccc(C(=O)O)c(O)c1 [Compound 1-5, 4-But-3-enyloxy-2-hydroxy-benzoic acid] | 143 to 144 °C
10 | O=C(O)c1ccc(OCc2ccc(-c3ccccc3)cc2)cc1O [Compound 1-16, 4-(Biphenyl-4-ylmethoxy)-2-hydroxy-benzoic acid] | 216 to 219 °C (dec.)
11 | NNC(=O)c1ccc(OCc2cccc(Br)c2)cc1O [Compound 2-7, 4-(3-Bromo-benzyloxy)-2-hydroxy-benzoic acid hydrazide] | 201 to 203 °C
12 | O=C(O)c1ccc(OCCCCC(O)CO)cc1O (centres unmarked) [Compound 2-3, 4-(5,6-Dihydroxhexoxy)-2-hydroxy-benzoic acid] | 152 °C
13 | Cc1noc(C)c1COc1ccc(C(=O)O)c(O)c1 [Compound 1-1, 2-Hydroxy-4-(3,5-dimethyl-isoxazol-4-yl-methyloxy)-benzoic acid] | 201 to 203 °C
14 | O=C(O)c1ccc(OCCCCCCCCO)cc1O [Compound 1-9, 2-Hydroxy-4-(8-hydroxy-octyloxy) benzoic acid] | 119 to 121 °C

The remaining lines, values ahead:

Row | melting point | SMILES
15 | 207 to 210 °C (dec.) | Nc1cccc(-c2ccc(COc3ccc(C(=O)O)c(O)c3)cc2)c1 [Compound 3-11, 4-(3′-Amino-biphenyl-4-ylmethoxy)-2-hydroxy-benzoic acid]
16 | 69 to 71 °C | CCCCCCCCOc1ccc(C#N)c(O)c1 [Compound 12-5, 2-Hydroxy-4-octyloxy-benzonitrile]
17 | 114 to 116 °C | CCCCCCCCOc1ccc(NC(=O)C(F)(F)F)c(O)c1 [Compound 9-1, 2,2,2-trifluoro-N-(2-hydroxy-4-octyloxy-phenyl)-acetamide]
18 | 193 to 196 °C (dec.) | O=C(O)c1ccc(OCc2cccc(-c3ccc4[nH]ccc4c3)c2)cc1O [Compound 3-34, 2-Hydroxy-4-[3-(1H-indol-5-yl)-benzyloxy]-benzoic acid]
19 | 209 to 211 °C (dec.) | O=C(O)c1ccc(OCc2ccc(-c3cccnc3)cc2)cc1O [Compound 3-1, 2-Hydroxy-4-(4-pyridin-3-yl-benzyloxy)-benzoic acid]
20 | 211 to 214 °C (dec.) | O=C(O)c1ccc(OCc2ccc(-c3cccc([N+](=O)[O-])c3)cc2)cc1O [Compound 3-10, 2-Hydroxy-4-(3′-nitro-biphenyl-4-ylmethoxy)-benzoic acid]
21 | 189 to 195 °C (dec.) | O=C(O)c1ccc(OCc2cccc(-c3cccnc3)c2)cc1O [Compound 3-27, 2-Hydroxy-4-(3-pyridin-3-yl-benzyloxy)-benzoic acid]
22 | 155 to 170 °C (dec.) | N#Cc1cccc(-c2cccc(COc3ccc(C(=O)O)c(O)c3)c2)c1 [Compound 3-41, 4-(3′-Cyano-biphenyl-3-ylmethoxy)-2-hydroxy-benzoic acid]
23 | 197 to 199 °C (dec.) | COc1cccc(-c2ccc(COc3ccc(C(=O)O)c(O)c3)cc2)c1 [Compound 3-9, 2-Hydroxy-4-(3′methoxy-biphenyl-4-ylmethoxy)-benzoic acid]
24 | 142 to 146 °C | CCCCCCCCOc1ccc(-c2nnn[nH]2)c(O)c1 [Compound 12-6, 5-Octyloxy-2-(1H-tetrazol-5-yl)-phenol]
25 | 181 to 183 °C (dec.) | Cn1ccc2cc(-c3cccc(COc4ccc(C(=O)O)c(O)c4)c3)ccc21 [Compound 3-33, 2-Hydroxy-4-[3-(1-methyl-1H-indol-5-yl)-benzyloxy]-benzoic acid]
26 | 279 to 284 °C (dec.) | O=C(O)c1ccc(-c2ccc(COc3ccc(C(=O)O)c(O)c3)cc2)cc1 [Compound 3-17, 4′-(4-Carboxy-3-hydroxy-phenoxymethyl)-biphenyl-4-carboxylic acid]
27 | 103 to 115 °C (dec.) | COc1cccc(-c2cccc(COc3ccc(C(=O)O)c(O)c3)c2)c1 [Compound 3-22, 2-Hydroxy-4-(3′-methoxy-biphenyl-3-ylmethoxy)-benzoic acid]
28 | 154 °C | CC(=O)Nc1ccc(CNc2ccc(C(=O)O)c(O)c2)cc1 [Compound 6-3, 4-(4-Acetylamino-benzylamino)-2-hydroxy-benzoic acid]
29 | 196 to 197 °C | N#Cc1ccc(NCc2ccc(-c3ccccc3)cc2)cc1O [Compound 12-16, 4-[(Biphenyl-4-ylmethyl)-amino]-2-hydroxy-benzonitrile]
30 | 244 to 248 °C (dec.) | CC(=O)c1ccc(-c2ccc(COc3ccc(C(=O)O)c(O)c3)cc2)s1 [Compound 3-13, 4-[4-(5-Acetyl-thiophen-2-yl)-benzyloxy]-2-hydroxy-benzoic acid]
31 | 222 to 226 °C (dec.) | O=C(O)c1ccc(OCc2ccc(-c3ccc(CO)cc3)cc2)cc1O [Compound 3-16, 2-Hydroxy-4-(4′-hydroxymethyl-biphenyl-4-ylmethoxy)-benzoic acid]
32 | 98 to 101 °C | CCCCCCCCOc1ccc(NS(C)(=O)=O)c(O)c1 [Compound 9-2, N-(2-hydroxy-4-octyloxy-phenyl)-methanesulfonamide]
33 | 156 to 164 °C (dec.) | O=C(O)c1ccc(OCc2cccc(-c3cccc4ccccc34)c2)cc1O [Compound 3-37, 2-Hydroxy-4-(3-naphthalen-1-yl-benzyloxy)-benzoic acid]
34 | 94 to 97 °C | CCCCCCCCCc1ccc(C(=O)O)c(O)c1 [Compound 11-1, 4-Nonyl salicylic acid]
35 | 211 to 215 °C (dec.) | O=C(O)c1ccc(OCc2cccc(-c3ccc(Cl)c(Cl)c3)c2)cc1O [Compound 3-30, 4-(3′,4′-Dichloro-biphenyl-3-ylmethoxy)-2-hydroxy-benzoic acid]
